Article PMC8763382, “2-Sulfonylpyrimidines as Privileged Warheads for the Development of S. aureus Sortase A Inhibitors” (Frontiers in Molecular Biosciences, 2022)
“And” between values parts separate entries of the source, which are not always exact repeats. Equal entries are not always repeated.

Experiments:
[1] = molecular target: T1, S. aureus SrtA (Staphylococcus aureus, UniProt Q2FV99); test: MALDI-TOF-MS of SrtA treated with inhibitor; conditions: SrtA 10 µM, inhibitor 100 µM, 1 h room temperature
T1 construct: His tag (inferred from IMAC on a HisTrap column); made in house; host or cells: E. coli BL21 Gold (DE3)
T1 sequence (Q2FV99 60-206): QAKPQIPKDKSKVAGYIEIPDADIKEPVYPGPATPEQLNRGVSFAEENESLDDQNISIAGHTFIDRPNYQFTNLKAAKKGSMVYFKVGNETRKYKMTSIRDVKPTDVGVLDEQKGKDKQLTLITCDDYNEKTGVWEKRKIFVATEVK
Protocol: By using MALDI-TOF mass spectrometry, we aimed to determine the mode of inhibitory action in an enzymatic context. For the native SrtA, we found a protein mass at m/z = 17,806.
An S. aureus SrtA stock solution was diluted in 100 μL assay buffer (50 mM Tris, 150 mM NaCl, 5 mM CaCl2, pH 7.50) to a final concentration of 10 µM. Compound 7a was dissolved in DMSO and added to SrtA at a final concentration of 100 μM. The protein samples were allowed to react for 1 h at room temperature and subsequently, these were desalted using Zeba^TM Spin desalting columns (7 kDa MWCO, 0.5 ml; Thermo Scientific) according to the manufacturer’s instructions. For MALDI sample preparation, the desalted solution was mixed 1:1 with a matrix combination of equal amounts α-cyano-4-hydroxycinnamic acid (20 mg/ml dissolved in 70% acetonitrile and 30% of formic acid in water at a concentration of 5%) and 2,5-dihydroxybenzoic acid (20 mg/ml dissolved in 70% acetonitrile and 30% of trifluoroacetic acid in water at a concentration of 0.1%). The resulting mixture was allowed to dry slowly on the MALDI target prior to introduction into the mass spectrometer. […] The acceleration voltage was set to 20 kV and the mass spectra were recorded in positive ion linear mode. […] Samples were measured at a laser power of 60% with random walk ionization across the sample spot.

[2] = in-solution reaction with free cysteine (ESI-MS / LC/MS); format: physicochemical; conditions: for time to quantitative reaction with cysteine: compound 100 µM, cysteine 100 µM, phosphate buffered solution pH 7.5
Protocol: Thus, we determined the point of nucleophilic thiol attack by means of ESI mass spectrometry between the reaction of compound 7a and cysteine in phosphate buffered solution at pH 7.5.
Furthermore, the influence of different solvents on the reaction of sulfonylpyrimidines with thiols in solution was investigated.
To a solution of 100 µM cysteine in phosphate-buffered saline (1×, pH 7.5), compound 5a or 7a (100 μM, 5% DMSO) was added and incubated for 10 min at room temperature. The negative labeling control was performed by mock treatment with DMSO. Samples were analyzed by LC/MS using an Agilent 1100 series HPLC system with an Agilent Poroshell 120 EC-C18 column (150 × 2.10 mm 4 μm; mobile phase: ACN/H2O 45:55 + 0.1% formic acid; flow rate: 0.4 ml/min) and electron spray ionization with the Agilent 1100 series LC/MSD Trap in positive ionization mode.

[3] = molecular target: T1, S. aureus SrtA; test: fluorometric enzyme assay of SrtA transpeptidation (Abz-LPETG-Dap(Dnp)-OH substrate); format: biochemical; conditions: for S. I. (k 2nd/k chem): SrtA k 2nd over cysteine k chem; for k inact: maximum inactivation rate; for k inact / KI (inactivation) / k 2nd: Tris pH 7.50, n. i. = <20% inhibition at 100 µM; for KI (inactivation): read-out: KI, dissociation constant of the reversible enzyme-inhibitor complex; for k 2nd: second-order rate of inhibition; for inhibition at 100 µM: read-out: SrtA inhibition relative to the DMSO control
Protocol: To evaluate the inhibition potency of the parent sulfonylpyrimidine 4, this compound was tested by means of a fluorometric enzyme assay with recombinantly expressed S. aureus SrtA ([Schmohl et al., 2017b]) and Abz-LPETG-Dap (Dnp)-OH as substrate. […] To verify the irreversible mode of inhibition, we determined the maximum inactivation rate k inact, the dissociation constant of the reversible enzyme-inhibitor complex KI, and the second-order rate of inhibition k 2nd. For compound 4, a k inact = 0.00065 s^−1 was found, which is very low compared to other covalent SrtA inhibitors ([Chan et al., 2017]; [Barthels et al., 2020]; [Jaudzems et al., 2020]).
Inhibition assays of S. aureus SrtA transpeptidation reactions were performed as described previously ([Barthels et al., 2020]). Briefly, the recombinantly expressed SrtA (final concentration: 1 µM) was incubated in assay buffer (50 mM Tris, 150 mM NaCl, 5 mM CaCl2, pH 7.50) with 25 µM of the FRET-pair substrate Abz-LPETG-Dap (Dnp)-OH (Genscript, Piscataway, New Jersey) and 0.5 mM tetraglycine (Sigma Aldrich, St. Louis, Missouri). Inhibitors were added from DMSO stocks. Reactions were initiated by addition of SrtA and monitored for 30 min at 30°C in an Infinite M200 Pro plate reader with λex 320 nm/λem 430 nm (Tecan, Männedorf, Switzerland). Three technical replicates were carried out for each inhibitor in black flat-bottom 96-well plates (Greiner bio-one, Kremsmünster, Austria). The enzyme kinetics of irreversible SrtA inactivation were analyzed as described previously ([Barthels et al., 2020]).

[4] = cysteine reactivity assay (competitive fluorescence assay with probe 8); format: physicochemical
Text: In order to study the kinetics of sulfonylpyrimidines reacting with free cysteine in solution, a strategy for a competitive fluorescence-based assay was adapted from previous works ([Epps and Taylor, 2001]; [Sameshima et al., 2017]). […] The reaction of probe 8 with cysteine liberates 4-methylumbelliferone as a fluorometrically detectable product (Figure 7A), and thus, the fluorescence increase can be described by the second-order rate constant k probe (Equation 1).
Upon the addition of competitive and irreversible cysteine modifiers such as sulfonylpyrimidines, the fluorescence increase of the probe reaction was hyperbolically attenuated (Figure 7B). According to the conceptual deduction described previously ([Epps and Taylor, 2001]; [Sameshima et al., 2017]), the experimental fluorescence curves can be analyzed by nonlinear regression as first-order reaction progress curves (Equation 2). The parameter k obs describes the curvature corresponding to the sum of the competing kinetics (Equation 3). Under the assumptions that 1) the competitive reaction between sulfonylpyrimidines vs. probe with cysteine is started by simultaneous addition, and 2) sulfonylpyrimidines are added at a much higher concentration than cysteine (5 µM) and the probe (5 µM), the k obs values depend substantially on the k chem value. The compound-specific second-order inactivation parameter k chem can be determined by linear regression from the k obs values of the dilution series (Equation 4). d[FL]/dt=kprobe[Cys][probe] (1) FL=[Cys]total⋅kprobe [probe]/kprobe [probe] + kchem [sulfonylpyrimidine](1−e^−kobs⋅t) (2) kobs=kchem [sulfonylpyrimidine]+kprobe [probe] (3) kchem=kobs/[sulfonylpyrimidine] (4)
Kinetic characterization of the reaction between sulfonylpyrimidines and cysteine was performed in degassed phosphate buffer (1×PBS, pH 7.5) or individual cases in bicarbonate buffer (20 mM NaHCO3, 100 mM NaCl, pH 7.5). Three technical replicates were carried out for each sulfonylpyrimidine in black flat-bottom 96-well plates. For this purpose, 50 µL buffered solution (including 5% (v/v) DMSO) of the respective sulfonylpyrimidine derivative (final: 250–3 µM) and the cysteine reactive probe 8 (final: 5 µM) were premixed. Reactions were initiated by the addition of 50 µL cysteine (final: 5 µM), dissolved in the respective buffer, and monitored for 30 min at 30°C in an Infinite M200 Pro plate reader with λex 380 nm/λem 460 nm. To calculate k obs and k chem values, fluorescence curves were fitted using the same non-linear regression as for in vitro inhibition of SrtA ([Barthels et al., 2020]).

[5] = molecular target: DENV NS2B/NS3 protease (Dengue virus type 2, UniProt P29990); test: protease selectivity panel, fluorometric assay DENV NS2B/NS3 protease; format: biochemical; conditions: 100 µM inhibitor; n. i. = no inhibition at 100 µM
Chain of DENV NS2B/NS3 protease (P29990 1398-1437): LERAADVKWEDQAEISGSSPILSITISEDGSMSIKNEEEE
Chain of DENV NS2B/NS3 protease (P29990 1476-1653): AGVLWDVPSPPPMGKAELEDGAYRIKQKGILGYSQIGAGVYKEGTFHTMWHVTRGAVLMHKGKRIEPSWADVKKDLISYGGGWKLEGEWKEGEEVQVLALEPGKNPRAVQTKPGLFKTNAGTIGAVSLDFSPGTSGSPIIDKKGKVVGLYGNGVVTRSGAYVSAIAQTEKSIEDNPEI
Protocol: (§1) To investigate how these sulfonylpyrimidines affect the activity of other cysteine and serine proteases, a selectivity panel was constructed from a matrix of 6 diverse sulfonylpyrimidines and 6 different proteases. The compounds were assayed at a final compound concentration of 100 µM for the cysteine proteases human cathepsin B (hCatB), cathepsin L (hCatL), and T. brucei rhodesain (Rd). Furthermore, the serine proteases NS2B-NS3 from Zika virus (ZIKV), the homologous protease from Dengue virus (DENV), and the human protease urokinase plasminogen activator (uPA) were tested for their susceptibility.
(§2) Fluorometric assays of the ZIKV/DENV NS2B/NS3 protease were performed as described previously ([Maus et al., 2021]). The assay was carried out in triplicates at 25°C in assay buffer (50 mM Tris, pH 9.0, 20% glycerol (v/v), and 1 mM CHAPS). 100 µM Boc-Gly-Arg-Arg-AMC (Bachem, Bubendorf, Switzerland) was used as a substrate. Fluorometric assays for cathepsin B, cathepsin L, and rhodesain (Calbiochem, Merck Millipore, Burlington, Massachusetts) were performed as described previously ([Klein et al., 2020a]). Cbz-Phe-Arg-AMC (Bachem, Bubendorf, Switzerland) was used as substrate (100 μM for cathepsin B, 6.5 μM for cathepsin L, and 10 µM for rhodesain). Fluorometric assays for urokinase plasminogen activator were performed as described previously ([Angelini et al., 2012]). 240 µM Cbz-Gly-Arg-Arg-AMC (Bachem, Bubendorf, Switzerland) was used as a substrate.

[6] = molecular target: T1, S. aureus SrtA; test: fluorometric enzyme assay of SrtA transpeptidation (Abz-LPETG-Dap(Dnp)-OH substrate); format: biochemical
[7] = molecular target: T2, cathepsin L (hCatL) (Homo sapiens, UniProt P07711); test: protease selectivity panel, fluorometric assay cathepsin L; format: biochemical; conditions: 100 µM inhibitor; read-out: CatL inhibition relative to the DMSO control
T2 construct: purchased Calbiochem, Merck Millipore
T2 sequence (P07711 114-333): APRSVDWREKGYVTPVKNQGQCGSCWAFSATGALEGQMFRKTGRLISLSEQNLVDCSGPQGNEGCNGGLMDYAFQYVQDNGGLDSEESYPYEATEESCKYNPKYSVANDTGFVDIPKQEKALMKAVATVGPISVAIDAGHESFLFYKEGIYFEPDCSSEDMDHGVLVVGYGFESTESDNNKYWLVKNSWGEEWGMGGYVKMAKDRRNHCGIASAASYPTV
Protocol: as §1, §2

[8] = molecular target: T3, T. brucei rhodesain (Rd) (Trypanosoma brucei rhodesiense, UniProt Q95PM0); test: protease selectivity panel, fluorometric assay rhodesain; format: biochemical; conditions: 100 µM inhibitor; n. i. = no inhibition at 100 µM; read-out: Rd inhibition relative to the DMSO control
T3 construct: purchased Calbiochem, Merck Millipore
T3 sequence (Q95PM0 entry or part of it): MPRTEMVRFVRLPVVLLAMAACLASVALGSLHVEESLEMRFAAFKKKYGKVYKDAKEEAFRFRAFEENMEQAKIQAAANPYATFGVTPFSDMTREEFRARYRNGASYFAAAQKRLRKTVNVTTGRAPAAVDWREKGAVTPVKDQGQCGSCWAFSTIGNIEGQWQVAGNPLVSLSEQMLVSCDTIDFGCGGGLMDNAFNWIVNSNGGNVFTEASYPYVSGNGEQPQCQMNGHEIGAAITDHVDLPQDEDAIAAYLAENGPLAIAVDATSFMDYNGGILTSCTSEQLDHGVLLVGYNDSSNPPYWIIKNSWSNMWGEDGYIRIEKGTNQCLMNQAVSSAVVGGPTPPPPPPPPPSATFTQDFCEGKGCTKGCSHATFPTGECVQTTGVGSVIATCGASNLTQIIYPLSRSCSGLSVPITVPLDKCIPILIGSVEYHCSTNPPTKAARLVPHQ
Protocol: as §1, §2

[9] = molecular target: human protease urokinase plasminogen activator (uPA) (Homo sapiens, UniProt P00749); test: protease selectivity panel, fluorometric assay urokinase plasminogen activator; format: biochemical; conditions: 100 µM inhibitor; n. i. = no inhibition at 100 µM; read-out: uPA inhibition relative to the DMSO control
Protocol: as §1, §2

[10] = molecular target: T4, NS2B-NS3 from Zika virus (ZIKV) (Zika virus, UniProt Q32ZE1); test: protease selectivity panel, fluorometric assay ZIKV NS2B/NS3 protease; format: biochemical; conditions: 100 µM inhibitor; read-out: ZIKV inhibition relative to the DMSO control
T4 construct: The ZIKV NS2B/NS3 protease is a serine protease and contains two non-catalytic cysteine residues
T4 sequence (Q32ZE1 1499-1676): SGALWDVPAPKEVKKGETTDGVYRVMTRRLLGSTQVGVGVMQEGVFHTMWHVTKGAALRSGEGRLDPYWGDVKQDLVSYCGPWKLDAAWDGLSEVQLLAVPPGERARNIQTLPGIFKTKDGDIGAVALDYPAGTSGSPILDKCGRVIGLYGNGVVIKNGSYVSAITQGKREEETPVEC
T4 sequence (Q32ZE1 1421-1460): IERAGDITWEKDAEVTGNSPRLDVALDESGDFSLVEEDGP
Protocol: as §1, §2

[11] = molecular target: T5, human cathepsin B (hCatB) (Homo sapiens, UniProt P07858); test: protease selectivity panel, fluorometric assay cathepsin B; format: biochemical; conditions: 100 µM inhibitor; read-out: CatB inhibition relative to the DMSO control
T5 construct: purchased Calbiochem, Merck Millipore
Protocol: as §1, §2

[12] = molecular target: Cys184 (UniProt position 184, LTLITCDDYNE); test: NMR; conditions: free enzyme (inferred); cited from earlier work
[13] = molecular target: His120 (UniProt position 120, ISIAGHTFIDR); conditions: free enzyme (inferred); cited from earlier work
[14] = tested on: SrtA; set-up: method as in Jaudzems et al., 2020; conditions: after 16 h of incubation with 100 µM inhibitor; ref Jaudzems et al., 2020; cited from earlier work
[15] = set-up: method as in Bauer et al.; conditions: ref Bauer et al.; cited from earlier work
[16] = phosphate buffer (1×PBS) pH 7.5

Compound	time to quantitative reaction with cysteine [2]	S. I. (k 2nd/k chem) [3]	k inact [3]	KI (inactivation) [3] [µM]	k 2nd [3]	Cysteine k chem [4, 16]	inhibition at 100 µM [7] [%]	inhibition at 100 µM [8] [%]	inhibition at 100 µM [10] [%]	inhibition at 100 µM [3] [%]	inhibition at 100 µM [11] [%]	other results
CS(=O)(=O)c1ncc(Br)c(C(=O)Nc2cccc(C(=O)c3ccccc3)c2)n1 [Compound 7a]	less than 10 min	268	0.01493 ± 0.00132 s⁻¹	32 ± 5.07	28,185 ± 2,117 M^−1min^−1	1.748 ± 0.375 M⁻¹ s⁻¹	–	–	–	–	–	covalent modification of SrtA (in words) [1]: quantitative conversion
CS(=O)(=O)c1ncc(Cl)c(C(=O)Nc2cccc(Oc3ccccc3)c2)n1 [Compound 5a]	< 10 min	159	0.0077 s⁻¹ and 0.00774 ± 0.00007 s⁻¹	57.6 ± 3.55	8,088 M^−1min^−1 and 8,088 ± 464 M^−1min^−1	0.847 ± 0.277 M⁻¹ s⁻¹	8.8	24.6	6.4	99	6.6	DENV inhibition relative to the DMSO control [5]: n. i.; melting point: 156 °C; k 2nd ([6]; pH 6.5, Tris or Bis-Tris buffer): 4,384 M^−1min^−1; k 2nd ([6]; pH 7.0, Tris or Bis-Tris buffer): 8,436 M^−1min^−1; k 2nd ([6]; zwitterionic HEPES buffer at pH 7.5): 7,956 M^−1min^−1; reactivity with cysteine (in words) ([2]; water/DMSO mixtures, no buffer): No reactivity; inhibition at 100 µM [9]: 23%; improvement of overall inhibition potency (k 2nd), factor ([3]; versus parent compound 4): 10
Sortase A (SrtA) (Staphylococcus aureus)	–	–	–	–	–	–	–	–	–	–	–	pKa [12]: 9.4; pKa [13]: 6.3
CS(=O)(=O)c1ncc(Cl)c(C(=O)Nc2ccccc2Cc2ccccc2)n1 [Compound 4]	–	–	0.00065 s⁻¹ and 0.0006 s⁻¹ and 0.00065 ± 0.00007 s⁻¹	47.1 ± 15.7	870 M⁻¹ min⁻¹ and 870 ± 170 M⁻¹ min⁻¹	–	–	–	–	–	–	SrtA inhibition [14]: 97%
CS(=O)(=O)c1ncc(Cl)c(C(=O)O)n1 [Compound 5c]	–	–	–	–	–	1.05 M⁻¹ s⁻¹ and 1.05 ± 0.0335 M⁻¹ s⁻¹	6.6	20	7.7	19.6	5.8	k chem vs. glutathione [15]: 82 M^−1min-^1; SrtA inhibition (in words) ([3]; final inhibitor concentration of 300 µM): no SrtA inhibition; Cysteine k chem ([4]; bicarbonate buffered solution pH 7.5): 0.365 ± 0.0212 M⁻¹ s⁻¹
